Experimental data from patent publication US5463029A, “Purification of fusion proteins comprising GM-CSF and IL-3” (Immunex Corporation, priority 1992, dated 1995).

Tests used:
TF-1 cells = experiment: cell proliferation assay using TF-1 cells (tritiated thymidine incorporation); type: cell-based, human; details: 72 hours at 37° C., tritiated thymidine for the final four hours
Description: The potency of the purified recombinant fusion protein was evaluated in a cell proliferation assay using TF-1 cells. TF-1 cells are a continuous cell line derived from human erythroid leukemia cells, and are dependent on IL-3 or GM-CSF for growth. TF-1 cells were maintained in medium containing GM-CSF. Prior to being used in an assay, the cells were washed free of GM-CSF, and resuspended to a concentration of 5×10^4 cells/ml in assay medium (Iscove's Modification of Dulbecco's Medium). The suspended cells were added to the wells of a 96-well microtiter plate containing dilutions of the recombinant fusion protein preparation, positive controls, or negative controls. The cells were incubated at 37° C. for 72 hours; proliferation was measured by adding tritiated thymidine for the final four hours of the incubation. The cells were harvested onto glass fiber filters, and the amount of radioactivity incorporated was determined by scintillation counting.

GM-CSF receptor = target: T1, GM-CSF receptor (Homo sapiens, UniProt P15509+P32927); experiment: binding affinity for GM-CSF receptor (as described by Park et al.)
T1 construct: endogenous in cells
T1 sequence (P15509 23-400): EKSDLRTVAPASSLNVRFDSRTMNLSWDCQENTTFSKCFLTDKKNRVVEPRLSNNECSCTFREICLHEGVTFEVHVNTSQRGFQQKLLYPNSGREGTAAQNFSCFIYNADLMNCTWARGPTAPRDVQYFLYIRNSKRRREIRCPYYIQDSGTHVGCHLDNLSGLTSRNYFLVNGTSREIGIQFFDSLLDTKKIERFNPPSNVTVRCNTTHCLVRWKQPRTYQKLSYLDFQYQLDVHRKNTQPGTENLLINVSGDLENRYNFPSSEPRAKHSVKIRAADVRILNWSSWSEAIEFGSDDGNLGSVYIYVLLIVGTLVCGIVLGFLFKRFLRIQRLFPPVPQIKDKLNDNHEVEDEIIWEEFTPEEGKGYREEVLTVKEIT
T1 sequence (P32927 17-897): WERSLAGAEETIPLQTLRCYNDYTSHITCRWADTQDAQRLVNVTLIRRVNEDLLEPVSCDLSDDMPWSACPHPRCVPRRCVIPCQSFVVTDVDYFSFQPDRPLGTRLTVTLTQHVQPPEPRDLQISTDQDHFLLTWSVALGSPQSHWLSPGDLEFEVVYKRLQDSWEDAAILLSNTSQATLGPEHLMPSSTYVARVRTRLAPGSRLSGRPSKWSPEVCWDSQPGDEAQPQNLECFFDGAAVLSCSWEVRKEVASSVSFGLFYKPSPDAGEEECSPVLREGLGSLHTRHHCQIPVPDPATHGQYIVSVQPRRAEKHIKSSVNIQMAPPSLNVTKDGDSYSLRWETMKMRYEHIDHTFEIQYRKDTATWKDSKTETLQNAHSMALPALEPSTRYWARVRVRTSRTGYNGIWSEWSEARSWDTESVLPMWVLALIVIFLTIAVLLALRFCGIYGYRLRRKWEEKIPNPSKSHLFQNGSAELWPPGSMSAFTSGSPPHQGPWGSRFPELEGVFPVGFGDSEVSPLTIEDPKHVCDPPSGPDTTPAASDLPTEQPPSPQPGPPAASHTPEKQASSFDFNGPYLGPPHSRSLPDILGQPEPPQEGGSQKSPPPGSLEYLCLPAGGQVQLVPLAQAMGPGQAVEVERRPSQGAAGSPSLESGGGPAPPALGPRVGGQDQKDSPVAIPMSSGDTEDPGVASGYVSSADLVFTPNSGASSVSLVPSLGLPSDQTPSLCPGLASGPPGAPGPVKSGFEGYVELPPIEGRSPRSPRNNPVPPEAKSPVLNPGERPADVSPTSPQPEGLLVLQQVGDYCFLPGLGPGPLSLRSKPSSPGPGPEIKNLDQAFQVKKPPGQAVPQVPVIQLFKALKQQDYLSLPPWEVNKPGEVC
Description: (§1) The binding affinity of the recombinant fusion protein for receptors for both GM-CSF and IL-3 were determined substantially as described by Park et al., J. Biol. Chem. 264:5420; 1989, and Park et al., Blood 74:56; 1989.

IL-3 receptor = target: T2, IL-3 receptor (Homo sapiens, UniProt P26951+P32927); experiment: binding affinity for IL-3 receptor (as described by Park et al.)
T2 construct: endogenous in cells
T2 sequence (P26951 19-378): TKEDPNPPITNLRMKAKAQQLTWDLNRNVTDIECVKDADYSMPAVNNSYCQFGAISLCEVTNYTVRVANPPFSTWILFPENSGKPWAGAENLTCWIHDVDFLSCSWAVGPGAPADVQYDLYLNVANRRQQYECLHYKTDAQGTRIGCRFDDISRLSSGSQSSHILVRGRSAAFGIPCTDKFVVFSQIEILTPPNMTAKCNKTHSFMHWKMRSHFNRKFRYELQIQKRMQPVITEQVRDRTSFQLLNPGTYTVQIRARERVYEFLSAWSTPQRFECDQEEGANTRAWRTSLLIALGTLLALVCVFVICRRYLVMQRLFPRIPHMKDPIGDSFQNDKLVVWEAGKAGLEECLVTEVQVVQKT
T2 sequence (P32927 17-897): T1 sequence (P32927 17-897)
Description: as §1

- binding affinity for GM-CSF receptor (GM-CSF receptor): 1e+10 M⁻¹
- binding affinity for IL-3 receptor (IL-3 receptor): 2.2e+10 M⁻¹
Substance: huGM-CSF[Leu^23 Asp^27 Glu^39 ]/Gly4 SerGly5 Ser/hulL-3[Pro^8 Asp^15 Asp^70 ] [recombinant fusion protein]
- potency (a unit is the amount of recombinant fusion protein that induces half-maximal proliferation in the TF-1 bioassay) (TF-1 cells): 2.1×10^8 U/mg
